The subject of this test is LOLMG. The test can be described thus: Pre-emergence herbicidal trial, tank-mix incorporated into the soil, damage rated 0-100% against untreated control plots. In kind it is in vivo, lolium multiflorum. The procedure: The mixtures according to the invention are applied pre-emergence as tank-mix which is incorporated into the soil. The herbicidal compounds of component A) and B) are applied in the formulation in which they are present as commercially available product. […] For comparison the synergistic effect is estimated as follows: The value E at which only an additive effect of the individual active ingredients is to be expected is calculated by the method of S. R. […] This is done using the formula […] where • X=Percentage of the herbicidal action of component A) at an application rate of a; • Y=Percentage of the herbicidal action of component B) at an application rate of b; • E=expected herbicidal action of component A)+B) at rates of application a+b (in %). If the value observed exceeds the value E calculated in accordance with Colby's formula, then synergism is present.

As for `Cc1ccccc1CO[C@@H]1C[C@@]2(C(C)C)CC[C@]1(C)O2` [Cinmethylin, exo(+)-1-methyl-4-(1-methylethyl)-2-[(2-methylphenyl)methoxy]-7-oxabicyclo[2.2.1]heptane], the “% control of LOLMG” value reads like this: (Cinmethylin 200 g/ha solo) 58%; (Cinmethylin 400 g/ha solo) 67%.
Turning to `CCCN(CCC)c1c([N+](=O)[O-])cc(C(F)(F)F)cc1[N+](=O)[O-]` [Trifluralin], the “% control of LOLMG” value (Trifluralin 500 g/ha solo) was 59%.
In the case of `CCC(CC)Nc1c([N+](=O)[O-])cc(C)c(C)c1[N+](=O)[O-]` [Pendimethalin], the “% control of LOLMG” value (Pendimethalin 600 g/ha solo) came out at 56%.

The values above are taken from patent publication US20080234131A1, “Herbicidal Mixtures of Cinmethylin” (priority 2005, published 2008).
